Test results from PMC3384240, “Related bifunctional restriction endonuclease-methyltransferase triplets: TspDTI, Tth111II/TthHB27I and TsoI with distinct specificities” (BMC Molecular Biology, 2012).

Target: T1, TspDTI (Thermus sp. DT, UniProt A8QN47)
T1 construct: recombinant from E. coli DH11S [pRZ-TspDTI], one extra Ala codon (GCG) after the start Met; native enzyme from Thermus sp; DT also purified; monomer; N-terminus […]
Test: lambda DNA cleavage, agarose gel
Type: biochemical
Settings: Mg2+ restriction buffer, 70 C, 30 min, allosteric activator (site not established)

T1 sequence (A8QN47 entry or part of it): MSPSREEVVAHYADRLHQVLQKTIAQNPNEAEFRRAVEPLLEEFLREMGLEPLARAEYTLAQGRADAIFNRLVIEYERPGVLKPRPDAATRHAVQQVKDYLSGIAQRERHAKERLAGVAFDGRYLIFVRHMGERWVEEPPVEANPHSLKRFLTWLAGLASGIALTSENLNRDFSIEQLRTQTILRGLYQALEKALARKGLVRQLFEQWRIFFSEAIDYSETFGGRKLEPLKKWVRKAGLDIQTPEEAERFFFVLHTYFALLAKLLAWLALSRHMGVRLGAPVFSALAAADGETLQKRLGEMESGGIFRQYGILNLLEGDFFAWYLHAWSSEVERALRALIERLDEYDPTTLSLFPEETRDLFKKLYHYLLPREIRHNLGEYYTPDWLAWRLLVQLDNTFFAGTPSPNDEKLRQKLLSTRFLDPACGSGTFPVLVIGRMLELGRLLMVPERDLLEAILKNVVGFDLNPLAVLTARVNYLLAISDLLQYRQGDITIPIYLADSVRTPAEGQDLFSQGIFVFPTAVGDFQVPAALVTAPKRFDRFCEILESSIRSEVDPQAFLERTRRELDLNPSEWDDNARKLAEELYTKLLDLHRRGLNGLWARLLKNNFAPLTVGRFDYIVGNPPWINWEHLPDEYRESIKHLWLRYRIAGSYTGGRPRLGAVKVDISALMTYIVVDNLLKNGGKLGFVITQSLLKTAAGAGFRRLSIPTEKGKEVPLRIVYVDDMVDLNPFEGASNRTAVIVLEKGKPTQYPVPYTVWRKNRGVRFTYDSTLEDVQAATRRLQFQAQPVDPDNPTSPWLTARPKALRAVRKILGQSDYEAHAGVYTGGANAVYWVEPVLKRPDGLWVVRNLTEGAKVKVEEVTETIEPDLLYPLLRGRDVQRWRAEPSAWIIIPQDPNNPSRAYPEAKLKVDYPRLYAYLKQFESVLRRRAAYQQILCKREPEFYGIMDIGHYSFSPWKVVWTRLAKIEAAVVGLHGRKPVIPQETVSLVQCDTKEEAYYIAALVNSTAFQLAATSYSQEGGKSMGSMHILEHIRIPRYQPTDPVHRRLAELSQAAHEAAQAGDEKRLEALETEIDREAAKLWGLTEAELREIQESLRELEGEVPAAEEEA

Nc1ncnc2c1ncn2[C@@H]1O[C@H](C[C@@H](N)CC[C@H](N)C(=O)O)[C@@H](O)[C@H]1O [SIN]
lambda DNA cleavage, agarose gel (stimulates REase at 50 uM SIN, SAM analogue, not a methyl donor): is stimulated equally by both SAM and its analogue - SIN

C[S+](CC[C@H](N)C(=O)O)C[C@H]1O[C@@H](n2cnc3c(N)ncnc32)[C@H](O)[C@@H]1O (some centres unmarked) [SAM]
lambda DNA cleavage, agarose gel (stimulates REase at 50 uM SAM, also methyl donor of the MTase activity (200 uM)): is stimulated equally by both SAM and its analogue - SIN
